# In patent US20220324880A1, “SMARCA INHIBITORS AND USES THEREOF” (Kymara Therapeutics, Inc., priority 2019, published 2022):
# How the values were obtained:
# SMARCA2 [1] = target: T1, SMARCA2 (Homo sapiens, UniProt P51531); experiment: SMARCA2 BromoScan bromodomain binding assay (phage-displayed bromodomain, qPCR readout); design: made in house; host or cells: E. coli host derived from the BL21 strain (T7 phage lysate); settings: read-out: BromoScan Panel - SMARCA2: External Kd
# Experimental: Bromodomain assays. T7 phage strains displaying bromodomains were grown in parallel in 24-well blocks in an E. coli host derived from the BL21 strain. E. coli were grown to log-phase and infected with T7 phage from a frozen stock (multiplicity of infection=0.4) and incubated with shaking at 32° C. until lysis (90-150 minutes). The lysates were centrifuged (5,000×g) and filtered (0.2 μm) to remove cell debris. Streptavidin-coated magnetic beads were treated with biotinylated small molecule or acetylated peptide ligands for 30 minutes at room temperature to generate affinity resins for bromodomain assays. […] Test compounds were prepared as 1000λ stocks in 100% DMSO. Kds were determined using an 11-point 3-fold compound dilution series with one DMSO control point. […] The compounds were then diluted directly into the assays such that the final concentration of DMSO was 0.09%. All reactions performed in polypropylene 384-well plates. Each was a final volume of 0.02 ml. […] The bromodomain concentration in the eluates was measured by qPCR. Compound Handling: An 11-point 3-fold serial dilution of each test compound was prepared in 100% DMSO at 1000× final test concentration. […] The compounds were then diluted directly into the assays such that the final concentration of DMSO was 0.09%. […] Binding constants (Kds) were calculated with a standard dose-response curve using the Hill equation. Curves were fitted using a non-linear least square fit with the Levenberg-Marquardt algorithm.
# Target sequence in this assay (P51531 1378-1506 limits assumed): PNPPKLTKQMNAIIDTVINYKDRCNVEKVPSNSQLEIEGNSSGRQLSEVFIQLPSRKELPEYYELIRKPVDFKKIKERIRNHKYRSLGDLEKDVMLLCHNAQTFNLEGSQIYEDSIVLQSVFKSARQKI
# SMARCA2 [2] = target: T1, SMARCA2; experiment: SMARCA2 HTRF assay (His-tagged SMARCA2-17, anti-6His Tb cryptate); settings: read-out: SMARCA2 binding Human HTRF: Average IC50
# Experimental: Sample handling: Prepared 1× Epigenetics Buffer according to manufacturer's instructions. Prepared 32 nM SMARCA2-17 (4X) with Epigenetics Buffer; Prepared 4× Tb working solution: dilute Mab Anti 6His Tb cryptate Gold in PPI-Terbium Detection buffer to 0.21 ng/l (100× dilution from stock). Prepared SMARCA2-mAb-Tb working solution by mixing equal volume of 32 nM SMARCA2 with Tb working solution. Started a half-hour timer. In a 96-well plate, prepared serial dilution of compound DMSO solutions. Placed 24 μl/well of Epigenetics Buffer to a second 96-well plate. Transferred 1 μl of the 100× compound DMSO solution to the second 96-well plate to make 4× compound working solution. Prepared 80 nM SMA-611-001H/SMA-788-001H (4×) with Epigenetics Buffer. Added 5 μl/well of SMA-611-001H into the 384-well plate. Added 5 μl/well of SMA-788-001H into the 384-well plate. Added 5 μl/well of 4× compound working solution into the 384-well plate, mix well. Added 10 µl/well of SMARCA2-mAb-Tb working solution into 384-well plate. Incubated the above mixtures at room temperature for 30 min. Data collected, processed and on EnVision. Calculated 520 nm/495 nm readouts ratio from raw data.
# Target sequence in this assay (P51531 whole entry): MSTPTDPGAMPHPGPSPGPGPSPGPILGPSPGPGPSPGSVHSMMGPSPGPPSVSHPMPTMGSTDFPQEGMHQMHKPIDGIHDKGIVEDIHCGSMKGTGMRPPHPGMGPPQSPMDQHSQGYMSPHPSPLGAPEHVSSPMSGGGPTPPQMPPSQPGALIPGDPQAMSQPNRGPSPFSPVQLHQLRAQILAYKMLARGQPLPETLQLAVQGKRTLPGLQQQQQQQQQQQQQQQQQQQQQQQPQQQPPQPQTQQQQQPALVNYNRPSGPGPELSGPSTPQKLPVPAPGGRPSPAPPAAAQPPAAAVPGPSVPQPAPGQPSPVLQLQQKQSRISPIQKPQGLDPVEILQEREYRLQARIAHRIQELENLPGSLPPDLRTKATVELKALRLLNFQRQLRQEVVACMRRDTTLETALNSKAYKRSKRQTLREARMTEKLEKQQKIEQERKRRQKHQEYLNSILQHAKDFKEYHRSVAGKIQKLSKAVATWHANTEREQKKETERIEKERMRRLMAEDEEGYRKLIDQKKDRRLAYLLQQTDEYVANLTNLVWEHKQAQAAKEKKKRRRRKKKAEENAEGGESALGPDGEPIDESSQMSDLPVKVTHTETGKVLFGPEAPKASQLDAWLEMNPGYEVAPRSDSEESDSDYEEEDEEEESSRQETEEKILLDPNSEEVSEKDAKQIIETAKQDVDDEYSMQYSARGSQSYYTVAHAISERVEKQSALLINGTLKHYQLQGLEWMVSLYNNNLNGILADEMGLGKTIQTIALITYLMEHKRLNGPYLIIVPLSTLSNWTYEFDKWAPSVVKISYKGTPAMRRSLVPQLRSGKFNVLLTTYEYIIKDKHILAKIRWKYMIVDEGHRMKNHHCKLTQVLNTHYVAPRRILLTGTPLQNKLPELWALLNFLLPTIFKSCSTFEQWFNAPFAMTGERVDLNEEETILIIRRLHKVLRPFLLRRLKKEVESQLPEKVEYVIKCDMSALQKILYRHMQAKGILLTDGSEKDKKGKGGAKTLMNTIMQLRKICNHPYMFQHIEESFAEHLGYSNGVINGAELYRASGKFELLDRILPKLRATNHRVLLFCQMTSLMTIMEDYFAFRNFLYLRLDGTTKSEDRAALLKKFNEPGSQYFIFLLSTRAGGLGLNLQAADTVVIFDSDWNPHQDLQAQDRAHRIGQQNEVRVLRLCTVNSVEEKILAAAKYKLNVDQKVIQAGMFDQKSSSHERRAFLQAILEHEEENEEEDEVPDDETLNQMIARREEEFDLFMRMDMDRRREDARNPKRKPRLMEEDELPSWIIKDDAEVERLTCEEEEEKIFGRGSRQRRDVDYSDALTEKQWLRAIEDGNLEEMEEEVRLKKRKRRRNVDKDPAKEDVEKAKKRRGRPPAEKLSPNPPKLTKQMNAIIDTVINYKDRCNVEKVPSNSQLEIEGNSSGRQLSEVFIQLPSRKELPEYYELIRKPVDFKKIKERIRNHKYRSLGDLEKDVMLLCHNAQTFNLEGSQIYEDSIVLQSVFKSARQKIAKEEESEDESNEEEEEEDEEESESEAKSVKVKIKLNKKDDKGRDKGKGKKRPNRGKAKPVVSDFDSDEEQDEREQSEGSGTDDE
SMILES,Kd (SMARCA2 [1]) [µM],IC50 (SMARCA2 [2]) [µM]
"Nc1nnc(-c2ccn[nH]2)cc1C1CCNCC1 [I-35, 4-(4-Piperidyl)-6-(1H-pyrazol-5-yl)pyridazin-3-amine]",> 1,
"CCCCOc1ccc(N2CCN(c3cc(-c4ccccc4O)nnc3N)CC2)cc1 [I-18, 2-(6-Amino-5-(4-(4-butoxyphenyl)piperazin-1-yl)pyridazin-3-yl)phenol]",> 1,
"O=C(Nc1ccc2cn[nH]c2c1)c1ccccc1O [I-21, 2-Hydroxy-N-(1H-indazol-6-yl)benzamide]",> 1,
COc1ccc(C(NC(=O)c2cc(-c3ccccc3O)n[nH]2)C2CC2)cc1 (centres unmarked) [I-38],> 1,
"Oc1ccccc1-c1cc2cc[nH]c2nn1 [I-19, 2-(7H-Pyrrolo[2,3-c]pyridazin-3-yl)phenol]",< 0.1,1 to 100
"c1ccc2c(c1)nnc1[nH]c(C3CCNCC3)cc12 [I-24, 2-(4-Piperidyl)-3H-pyrrolo [2,3-c]cinnoline]",0.501 to 1,
"Nc1ncc(-c2cccc(Cl)c2)cc1N1CCNCC1 [I-15, 5-(3-chlorophenyl)-3-(piperazin-1-yl)pyridin-2-amine]",> 1,
"O=c1c2c(O)cccc2ccn1Cc1cnn(Cc2ccccc2)c1 [I-3, 2-((1-benzyl-1H-pyrazol-4-yl)methyl)-8-hydroxyisoquinolin-1(2H)-one]",> 1,
"Oc1ccccc1-c1n[nH]c2ccccc12 [I-29, 2-(1H-indazol-3-yl)phenol]",> 1,
"CC(C)(C)OC(=O)N1CCCC1Cn1ccc2cccc(O)c2c1=O (centres unmarked) [I-6, Tert-butyl-2-((8-hydroxy-1-oxoisoquinolin-2(1H)-yl)methyl)pyrrolidine-1-carboxylate]",> 1,
"Nc1ncc(-c2ncccn2)cc1N1CCNCC1 [I-14, 3-(piperazin-1-yl)-5-(pyrimidin-2-yl)pyridin-2-amine]",> 1,
"Cc1ccc(O)c(-c2cc(N3CCNCC3)c(N)nn2)c1 [I-34, 2-(6-Amino-5-piperazin-1-yl-pyridazin-3-yl)-4-methyl-phenol]",> 1,
"O=c1c2c(O)cccc2ccn1CC1CCNC1 (centres unmarked) [I-10, 8-hydroxy-2-(pyrrolidin-3-ylmethyl)isoquinolin-1(2H)-one]",> 1,
COC(=O)C1=CC(=O)N2CCCN=C2S1 [I-37],> 1,
"O=C(NCC1CCN(c2ccccn2)CC1)c1ccccc1O [I-16, 2-Hydroxy-N-((1-(pyridin-2-yl)piperidin-4-yl)methyl)benzamide]",> 1,
"Cn1cccc(-c2cnc(N)c(-c3cn[nH]c3)c2)c1=O [I-2, 3-[6-Amino-5-(1H-pyrazol-4-yl)-3-pyridyl]-1-methyl-pyridin-2-one]",> 1,
"CC(C)(C)OC(=O)N1CCC(Cn2ccc3cccc(O)c3c2=O)C1 (centres unmarked) [I-9, Tert-butyl 3-((8-hydroxy-1-oxoisoquinolin-2(1H)-yl)methyl)pyrrolidine-1-carboxylate]",> 1,

SMILES,Kd (SMARCA2 [1]) [µM],IC50 (SMARCA2 [2]) [µM]
"Nc1ncc2ccccc2c1C#CC1CCNCC1 [I-25, 4-(Piperidin-4-ylethynyl)isoquinolin-3-amine]",,101 to 500
"Nc1nnc(-c2ccc(Cl)cc2O)cc1N1CCNCC1 [I-31, 2-(6-Amino-5-piperazin-1-yl-pyridazin-3-yl)-5-chloro-phenol]",> 1,
"O=c1c2c(O)cccc2ccn1CC1CCN(c2ccccn2)C1 (centres unmarked) [I-5, 8-hydroxy-2-((1-(pyridin-2-yl)pyrrolidin-3-yl)methyl)isoquinolin-1(2H)-one]",> 1,
"O=c1c2c(O)cccc2ccn1CC1CCCN1 (centres unmarked) [I-7, 8-hydroxy-2-(pyrrolidin-2-ylmethyl)isoquinolin-1(2H)-one]",> 1,
Nc1ncc(-c2ncccn2)cc1C1CCNCC1 [I-13],> 1,
"Nc1nnc(-c2cc(Cl)ccc2O)cc1N1CCNCC1 [I-33, 2-(6-Amino-5-piperazin-1-yl-pyridazin-3-yl)-4-chloro-phenol]",0.1 to 0.5,
"Oc1ccccc1-c1n[nH]c2ccncc12 [I-30, 2-(1H-Pyrazolo[4,3-c]pyridin-3-yl)phenol]",> 1,
"Oc1ccccc1-c1cc2c(C3CCNCC3)c[nH]c2nn1 [I-20, 2-(5-(Piperidin-4-yl)-7H-pyrrolo[2,3-c]pyridazin-3-yl)phenol]",< 0.1,
"Nc1nnc(-c2cccc(Cl)c2O)cc1N1CCNCC1 [I-32, 2-(6-Amino-5-(piperazin-1-yl)pyridazin-3-yl)-6-chlorophenol]",< 0.1,
"Nc1nnc(-c2cnccc2O)cc1N1CCNCC1 [I-17, 3-(6-Amino-5-(piperazin-1-yl)pyridazin-3-yl)pyridin-4-ol]",> 1,
"O=C(Nc1cc(C2CCNCC2)cc2[nH]ncc12)c1ccccc1O [I-22, 2-Hydroxy-N-(6-(piperidin-4-yl)-1H-indazol-4-yl)benzamide]",> 1,
"O=c1ncn(-c2ccccc2)c2cccc(Cl)c12 [I-11, 5-Chloro-1-phenylquinazolin-4(1H)-one]",> 1,
"O=C(Nc1ccc2c(C3CCNCC3)n[nH]c2c1)c1ccccc1O [I-23, 2-Hydroxy-N-[3-(4-piperidyl)-1H-indazol-6-yl]benzamide]",> 1,
"CC(c1ccccc1)n1cc(-c2cc(-c3cccn(C)c3=O)cnc2N)cn1 (centres unmarked) [I-1, 6′-Amino-1-methyl-5′-(1-(1-phenylethyl)-1H-pyrazol-4-yl)-[3,3′-bipyridin]-2(1H)-one]",> 1,
"Nc1ncc2c(Cl)cccc2c1C#CC1CCNCC1 [I-27, 8-Chloro-4-(piperidin-4-ylethynyl)isoquinolin-3-amine]",> 1,
"O=c1c2c(O)cccc2ccn1Cc1cn[nH]c1 [I-4, 2-((1H-pyrazol-4-yl)methyl)-8-hydroxyisoquinolin-1(2H)-one]",> 1,
"Oc1ccccc1-c1cc(-c2ccc(CN3CCNCC3)cc2)[nH]n1 [I-28, 2-[5-[4-(piperazin-1-ylmethyl)phenyl]-1H-pyrazol-3-yl]phenol]",> 1,
